# Experimental data from US20120087864A1, “METHOD FOR DIAGNOSING AND/OR EVALUATING RETINAL DISEASE” (R-TECH UENO, LTD., priority 2010, published 2012).
# “And” between values parts separate entries of the source, which are not always exact repeats. Identical values can stand only once. Marks after values point to notes of the source that are not given here.
# Columns and labels:
# Type in all cases: in vivo, human
# [1] = system: patient with retinal pigmentosa; experiment: Humphrey visual field test (SITA-Standard, central 10-2) retinal sensitivity (MD value), 24-week placebo-controlled clinical test; conditions: 0.15% solution twice a day; for change value of Humphrey central 10-2 retina sensitivity (MD value): change from before treatment
# Description: (§1) One drop or two drops of isopropyl unoprostone 0.15 w/v % ophthalmic solution per one time was administered to each eye of patient with retinal pigmentosa daily for 24 weeks, and the following items were examined. 112 patients participated this test.
# Change in retinal sensitivity through Humphrey visual field test (SITA-Standard, 10-2)
# The above ophthalmic solution of Formulation Example 1 was used as the test drug.
# (1) Dosage regimen: Instillation twice* a day, one drop of a first solution was instilled at the time of first instillation and, after 5 minute, one drop of a second solution was instilled into both eyes.
# Since subjective symptoms depend on one eye having better visual function than the other, when both eyes satisfy the all selection criteria, the eye having better desimal visual acuity was adopted as the eye for evaluation of efficacy. When both eyes have the same desimal visual acuity, right eye was adopted as the eye for evaluation of efficacy
# Between-group comparison of the average of Humphrey central 10-2 retina sensitivity (MD value) was made every measurement time point.
# Between-group comparison of the change value of Humphrey central 10-2 retina sensitivity (MD value) was made every measurement time point.
# [2] = system: patient with retinal pigmentosa; experiment: MP-1 microperimeter retinal sensitivity of central 2 degrees (4 points); conditions: 0.15% solution twice a day; for average retinal sensitivity by MP-1 in central 2 degrees (4 points), change value: change from 0 week
# Description: as §1
# Using an combined equipment having a retinal camera and an automatic perimeter, retinal sensitivity of measurement points set preliminarily on the eyeground retina was automatically measured. The feature of MP-1 is that tracking can be automatically performed according to the eye movement, and retinal sensitivity of a local part of the eyeground can be accurately measured by correcting a gap detected during a test. Also, it is possible to serially measure retinal sensitivity at the same site of the eyeground since a test can be performed at the same measurement point of retina as that of the previous test.
# Change in retinal sensitivity of central 2 degrees (4 points) through MP-1 microperimeter
# The value of the average retinal sensitivity by MP-1 in central 2 degrees (4 points) changed from the value at the time of completion of the pre-observation period (0 week) at each measurement time point (time of hospital visiting of subject) was calculated in each eye.
# The retinal sensitivity by MP-1 central 2 degrees (4 points) was measured at a pre-observation period, after 4 weeks, after 8 weeks, after 16 weeks and after 24 weeks. It is estimated that variation (error) due to seasonal variation during measuring for 24 weeks may arise. For the purpose of absolutely evaluating the effect of the drug, in order to grasp an overview including negation of both improvement and aggravation, between-group comparison was made by adding up of a difference (change value) with the pre-observation period in four measurements.
# [3] = system: patient with retinal pigmentosa; experiment: NEI VFQ-25 (Compo 8) vision-related QOL questionnaire; conditions: 0.15% solution twice a day, after 24 weeks minus 0 week
# Description: as §1
# Change in The 25-Item National Eye Institute Visual Function Questionnaire (NEI VFQ-25) Compo 8:
# Original NEI VFQ-25 (The 25-item National Eye Institute Visual Function Questionnaire) for evaluation of vision-related QOL of a patient is constituted from visual functions in various living scenes, and 12 subscales (questions of 25 items) for measurement of the degree of restrictions of vision-related physical, mental and social living scenes. In the present test, a questionnaire of Compo 8 constituted from 8 subscales with exception of general health, driving, peripheral vision and ocular pain among the subscales was used. At the time of completion of the pre-observation period (0 week) and completion of the treatment (24 weeks), a change value of score (the value after 24 weeks minus the value at 0 week) was evaluated.
# [4] = system: patient with retinal pigmentosa; experiment: Intraocular pressure (IOP) over the 24-week measurement period; conditions: one drop and two drop groups
# [5] = one drop per time group, after 8 weeks
# [6] = one drop per time group, after 16 weeks
# [7] = one drop per time group, after 24 weeks
# [8] = two drops per time group, after 4 weeks
# [9] = two drops per time group, after 8 weeks
# [10] = two drops per time group, after 16 weeks
# [11] = two drops per time group, after 24 weeks
structure (smiles),measurement,setting,value
"CCCCCCCC(=O)CC[C@@H]1[C@@H](C/C=C\CCCC(=O)OC(C)C)[C@@H](O)C[C@H]1O [isopropyl unoprostone, (+)-isopropyl (Z)-7-[(1R,2R,3R,5S)-3,5-dihydroxy-2-(3-oxodecyl)cyclopentyl]hept-5-enoate]",average of Humphrey central 10-2 retina sensitivity (MD value),"[1]; one drop per time group, 0 week (before treatment)",−14.116 dB
same,average of Humphrey central 10-2 retina sensitivity (MD value),"[1]; one drop per time group, after 4 weeks",−13.952 dB
same,average of Humphrey central 10-2 retina sensitivity (MD value),[1]; [5],−14.074 dB
same,change value of Humphrey central 10-2 retina sensitivity (MD value),[1]; [5],0.042 dB
same,average of Humphrey central 10-2 retina sensitivity (MD value),[1]; [6],−13.768 dB
same,change value of Humphrey central 10-2 retina sensitivity (MD value),[1]; [6],0.136 dB
same,average of Humphrey central 10-2 retina sensitivity (MD value),[1]; [7],−13.699 dB
same,change value of Humphrey central 10-2 retina sensitivity (MD value),[1]; [7],0.417 dB
same,average of Humphrey central 10-2 retina sensitivity (MD value),"[1]; two drops per time group, 0 week (before treatment)",−18.376 dB
same,average of Humphrey central 10-2 retina sensitivity (MD value),[1]; [8],−17.671† dB
same,change value of Humphrey central 10-2 retina sensitivity (MD value),[1]; [8],0.831 dB
same,average of Humphrey central 10-2 retina sensitivity (MD value),[1]; [9],−17.810 dB
same,change value of Humphrey central 10-2 retina sensitivity (MD value),[1]; [9],0.696* dB
same,average of Humphrey central 10-2 retina sensitivity (MD value),[1]; [10],−17.341† dB
same,change value of Humphrey central 10-2 retina sensitivity (MD value),[1]; [10],0.777 dB
same,average of Humphrey central 10-2 retina sensitivity (MD value),[1]; [11],−17.411† dB
same,change value of Humphrey central 10-2 retina sensitivity (MD value),[1]; [11],0.891 dB
same,"MP-1 central 2 degrees (4 points) average retinal sensitivity: aggravation by 4 dB or more, number of cases (%)",[2]; [7],6 (15.8%) cases (%)
same,"MP-1 central 2 degrees (4 points) average retinal sensitivity: improvement by 4 dB or more, number of cases (%)",[2]; [7],3 (7.9%) cases (%)
same,"MP-1 central 2 degrees (4 points) average retinal sensitivity: no change, number of cases (%)",[2]; [7],29 (76.3%) cases (%)
same,"average retinal sensitivity by MP-1 in central 2 degrees (4 points), change value",[2]; [8],0.5 dB
same,"average retinal sensitivity by MP-1 in central 2 degrees (4 points), change value",[2]; [9],1.013 dB
same,"average retinal sensitivity by MP-1 in central 2 degrees (4 points), change value",[2]; [10],0.713 dB
same,"MP-1 central 2 degrees (4 points) average retinal sensitivity: aggravation by 4 dB or more, number of cases (%)",[2]; [11],1 (2.6%) cases (%) and 1 (2.9%)* cases (%)
same,"MP-1 central 2 degrees (4 points) average retinal sensitivity: improvement by 4 dB or more, number of cases (%)",[2]; [11],6 (17.1%) cases (%)
same,"MP-1 central 2 degrees (4 points) average retinal sensitivity: no change, number of cases (%)",[2]; [11],28 (80.0%) cases (%)
same,"average retinal sensitivity by MP-1 in central 2 degrees (4 points), change value",[2]; [11],1.1^† dB
same,"average retinal sensitivity by MP-1 in central 2 degrees (4 points), comparison of change value","[2]; two drops per time group, change values of four measurements (4, 8, 16, 24 weeks) added up",0.826* dB
same,"change value of VFQ-25 subscale ""vision-related social function""",[3]; one drop per time group,−2.3
same,change value of VFQ-25 summary score,[3]; one drop per time group,−1.1
same,"change value of VFQ-25 subscale ""vision-related social function""",[3]; two drops per time group,6.6*^†
same,change value of VFQ-25 summary score,[3]; two drops per time group,2.69^†
same,decrease of intraocular pressure (IOP) as compared to the placebo,[4],greater decrease in IOP
